This is an account of results in publication PMC11686366 (Nature Communications, 2024).

Series [1] has as its system thiamine transporters (SLC19A2 and SLC19A3). The format is cell-based, human.
The next series concerns the target T1, human SLC19A3 (Homo sapiens, UniProt Q9BZV2).
T1 sequence (Q9BZV2 1-496): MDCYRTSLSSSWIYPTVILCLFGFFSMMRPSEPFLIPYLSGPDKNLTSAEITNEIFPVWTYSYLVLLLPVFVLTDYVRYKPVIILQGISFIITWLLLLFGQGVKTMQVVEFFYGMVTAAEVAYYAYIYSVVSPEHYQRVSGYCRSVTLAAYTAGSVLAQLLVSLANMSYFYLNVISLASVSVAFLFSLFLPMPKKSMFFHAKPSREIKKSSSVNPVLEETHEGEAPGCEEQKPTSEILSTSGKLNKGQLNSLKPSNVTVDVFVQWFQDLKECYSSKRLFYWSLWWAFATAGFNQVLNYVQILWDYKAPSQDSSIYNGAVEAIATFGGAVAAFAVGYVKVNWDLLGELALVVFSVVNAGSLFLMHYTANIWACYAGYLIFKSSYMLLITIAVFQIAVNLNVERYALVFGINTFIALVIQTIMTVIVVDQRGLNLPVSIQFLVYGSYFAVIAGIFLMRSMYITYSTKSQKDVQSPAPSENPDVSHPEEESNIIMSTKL
The series is described as follows: Microscale thermophoresis. Format: binding. The conditions noted are these: for Kd: MST. For orientation: In MST a laser heats a spot of the sample, and binding alters the fluorescence response.

For series [2] the following is noted: pyridoxine, bipolar molecule; cited from earlier work.
A further series deals with T2, human SLC19A2 (Homo sapiens, UniProt O60779).
T2 sequence (O60779 1-497): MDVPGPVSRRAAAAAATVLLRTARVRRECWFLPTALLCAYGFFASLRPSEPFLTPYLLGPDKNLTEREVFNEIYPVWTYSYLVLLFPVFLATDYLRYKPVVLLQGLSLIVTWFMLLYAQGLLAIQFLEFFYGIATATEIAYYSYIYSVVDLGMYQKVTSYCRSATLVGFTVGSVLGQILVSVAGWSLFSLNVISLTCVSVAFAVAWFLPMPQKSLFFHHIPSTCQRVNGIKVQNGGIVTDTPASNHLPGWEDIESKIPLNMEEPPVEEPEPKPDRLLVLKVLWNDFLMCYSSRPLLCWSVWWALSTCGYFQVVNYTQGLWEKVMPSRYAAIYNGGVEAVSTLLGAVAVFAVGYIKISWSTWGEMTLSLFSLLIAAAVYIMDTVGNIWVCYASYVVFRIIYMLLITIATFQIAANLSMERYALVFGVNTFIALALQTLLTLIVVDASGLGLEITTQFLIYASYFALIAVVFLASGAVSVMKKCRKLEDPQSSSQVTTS
The series is described as follows: Microscale thermophoresis. The format is binding. To be noted: MST.

As to `COc1cc(Cc2cnc(N)nc2N)cc(OC)c1OC` [trimethoprium], the “Inhibition of 3H-thiamine uptake (in words)” value (shortened to “Inhibition”) in series [1] is given as “inhibitory effects”. Turning to `CN(C)C(=N)N=C(N)N` [metformin], the “Affinity (in words)” value on human SLC19A3 (Supplementary Fig. 12 / 11b) was “millimolar affinity”. Besides, the “Inhibition” value in series [1] is “inhibitory effects”. On to `Cc1ncc(C[n+]2csc(CCO)c2C)c(=O)[nH]1` [oxythiamine], for which, in series [1], the “Inhibition” value is “inhibitory effects”. With `N#CCNC(=O)c1ccc(-c2ccnc(Nc3ccc(N4CCOCC4)cc3)n2)cc1` [momelotinib], the “Inhibition” value in series [1] is reported as “inhibitory effects”.

Regarding `Cc1cnc(Nc2ccc(OCCN3CCCC3)cc2)nc1Nc1cccc(S(=O)(=O)NC(C)(C)C)c1` [fedratinib], in series [1], the “Inhibition” value is reported as “inhibitory effects”. Turning to `Cc1ncc(CO)c(CO)c1O` [pyridoxine], the “pKa (lower value)” value in series [2] is recorded as 5.6. With `CCN1CCN(Cc2ccc(Nc3ncc(F)c(-c4cc(F)c5nc(C)n(C(C)C)c5c4)n3)nc2)CC1` [abemaciclib], the “Inhibition” value in series [1] is given as “inhibitor”. Turning to `CCCc1ncc(C[n+]2ccccc2C)c(N)n1` [amprolium], at human SLC19A3 (pH 6.0), the Kd (commonly the concentration at which binding is half-saturated) is roughly 450 nM. The “Inhibition” value in series [1] was “inhibitory effects”. For `Cc1ncc(C[n+]2csc(CCO)c2C)c(N)n1` [thiamine], the equilibrium dissociation constant (Kd) at human SLC19A2 (pH 6.0) was roughly 1200 nM; at human SLC19A2 (pH 7.5), roughly 78400 nM; at human SLC19A3 (pH 6.0), roughly 250 nM; at human SLC19A3 (pH 7.5) it was roughly 154000 nM. In the case of `CCc1nc(N)nc(N)c1-c1ccc(Cl)cc1` [pyrimethamine], in series [1], the “Inhibition” value was “inhibitory effects”. The same measure, in the same setting: the same measure for `Cc1cc(C#N)cc(C)c1Oc1nc(Nc2ccc(C#N)cc2)nc(N)c1Br` [etravirine]: “inhibitor”.
